From article PMC5762309 (Oncotarget, 2017)
Like-named read-outs stand apart in the source and are kept apart here.

What was measured:
KIT T670I/V559D = KIT T670I/V559D (Homo sapiens, UniProt P10721, T670I/V559D); assay: KIT auto-phosphorylation in transformed BaF3 cells
KIT A829P = KIT A829P (Homo sapiens, UniProt P10721, A829P); assay: KIT auto-phosphorylation in transformed BaF3 cells
KIT V559D [1] = target: T1, KIT V559D (Homo sapiens, UniProt P10721, V559D); assay: KIT auto-phosphorylation in transformed BaF3 cells; details: 2h
Target sequence in this assay (P10721 546-976 V559D): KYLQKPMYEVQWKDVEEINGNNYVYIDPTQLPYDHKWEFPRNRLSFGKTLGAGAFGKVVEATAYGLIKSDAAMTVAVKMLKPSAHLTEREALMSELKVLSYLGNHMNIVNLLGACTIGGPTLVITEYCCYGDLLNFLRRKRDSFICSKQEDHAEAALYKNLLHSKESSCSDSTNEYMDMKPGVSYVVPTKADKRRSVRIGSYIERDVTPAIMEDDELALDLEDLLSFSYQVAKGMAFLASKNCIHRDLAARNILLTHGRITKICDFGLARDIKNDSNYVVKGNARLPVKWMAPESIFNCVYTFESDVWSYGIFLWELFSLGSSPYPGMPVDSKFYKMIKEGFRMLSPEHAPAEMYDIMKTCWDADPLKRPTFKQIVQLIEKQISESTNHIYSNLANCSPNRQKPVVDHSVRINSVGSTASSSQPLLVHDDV

CDK2 = target: T2, CDK2 (Homo sapiens, UniProt P24941); assay: KINOMEScan; assay type: binding; set-up: dose or concentration left out as unconfirmed
T2 construct: purchased DiscoverX KINOMEscan

[2] = target: T3, RSK4(Kin.Dom.2-C-terminal) (Homo sapiens, UniProt Q9UK32); assay: KINOMEScan; assay type: binding
T3 construct: RSK4(Kin.Dom.2-C-terminal); purchased DiscoverX KINOMEscan
T3 sequence (Q9UK32 426-683 limits assumed): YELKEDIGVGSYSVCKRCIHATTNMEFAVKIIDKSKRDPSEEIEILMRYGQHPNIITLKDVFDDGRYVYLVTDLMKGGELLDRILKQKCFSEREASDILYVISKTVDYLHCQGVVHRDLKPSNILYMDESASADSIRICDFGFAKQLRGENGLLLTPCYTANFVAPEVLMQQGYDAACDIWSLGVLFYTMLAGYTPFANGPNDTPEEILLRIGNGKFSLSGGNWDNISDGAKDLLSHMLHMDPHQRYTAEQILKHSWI

SIK = target: T4, SIK (Homo sapiens, UniProt P57059); assay: KINOMEScan; assay type: binding; set-up: dose or concentration left out as unconfirmed
T4 construct: purchased DiscoverX KINOMEscan

BMPR2 = target: T5, BMPR2 (Homo sapiens, UniProt Q13873); assay: KINOMEScan; assay type: binding; set-up: dose or concentration left out as unconfirmed
T5 construct: purchased DiscoverX KINOMEscan

[3] = target: T6, JAK1(JH2domain-pseudokinase) (Homo sapiens, UniProt P23458); assay: KINOMEScan; assay type: binding; set-up: dose or concentration left out as unconfirmed
T6 construct: JAK1(JH2domain-pseudokinase); purchased DiscoverX KINOMEscan
T6 sequence (P23458 583-855 limits assumed): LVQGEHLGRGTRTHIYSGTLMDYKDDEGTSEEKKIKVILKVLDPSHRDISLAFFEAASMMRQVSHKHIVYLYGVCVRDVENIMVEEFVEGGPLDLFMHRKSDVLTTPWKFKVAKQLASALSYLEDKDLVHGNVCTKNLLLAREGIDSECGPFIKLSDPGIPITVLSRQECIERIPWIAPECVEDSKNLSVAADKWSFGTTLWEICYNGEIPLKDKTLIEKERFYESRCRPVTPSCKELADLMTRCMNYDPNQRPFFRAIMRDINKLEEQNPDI

[4] = target: T7, TYK2(JH1domain-catalytic) (Homo sapiens, UniProt P29597); assay: KINOMEScan; assay type: binding; set-up: dose or concentration left out as unconfirmed
T7 construct: TYK2(JH1domain-catalytic); purchased DiscoverX KINOMEscan

CDC2L5 = target: T8, CDC2L5 (Homo sapiens, UniProt Q14004); assay: KINOMEScan; assay type: binding; details: Concentrations 1 µM
T8 construct: purchased DiscoverX KINOMEscan
Excerpt: Then we used the DiscoverX’s KINOMEScan platform to further examine CHMFL-KIT-031’s kinome-wide selectivity profile. […] Besides the strong binding to V559D, it also bound strongly to KIT wt, L576P and A829P.

SYK = target: T9, SYK (Homo sapiens, UniProt P43405); assay: KINOMEScan; assay type: binding; set-up: dose or concentration left out as unconfirmed
T9 construct: purchased DiscoverX KINOMEscan

FLT3(ITD,D835V) = assay: KINOMEScan; assay type: binding; set-up: dose or concentration left out as unconfirmed
KIT V559D [5] = target: T1, KIT V559D; assay: KIT auto-phosphorylation in KIT V559D overexpressed Colo320DM cells; assay type: cell-based; set-up: expressed in transfected cells; host or cells: Colo320DM (transient)
Excerpt: (§1) In order to better define CHMFL-KIT-031’s inhibitory effect against KIT V559D mutant, we then tested it with purified KIT wt/V559D kinase protein by ADP-Glo assay (Figure 2A). […] We also transformed and overexpressed KIT V559D transiently into Colo320DM cells which express wt KIT kinase and tested CHMFL-KIT-031’s inhibitory effects for the auto-phosphorylation of KIT Y703, 719 and Y823 sites.
KIT-V559D kinase domain coding sequence was inserted into a pMSCV puro vector (Clontech) that was modified by inserting a 3×FLAG sequence at the 3’ end of the multicloning sites. The vector was transiently transfected into Colo320DM cells with TransIN™EL transfection reagent.
Target sequence in this assay (P10721 546-976 V559D limits assumed): as the sequence (P10721 546-976 V559D) above

MARK4 = target: T10, MARK4 (Homo sapiens, UniProt Q96L34); assay: KINOMEScan; assay type: binding; set-up: dose or concentration left out as unconfirmed
T10 construct: purchased DiscoverX KINOMEscan

MET(Y1235D) = target: T11, MET(Y1235D) (Homo sapiens, UniProt P08581, Y1235D); assay: KINOMEScan; assay type: binding; set-up: dose or concentration left out as unconfirmed
T11 construct: purchased DiscoverX KINOMEscan
T11 sequence (P08581 25-1390 Y1235D): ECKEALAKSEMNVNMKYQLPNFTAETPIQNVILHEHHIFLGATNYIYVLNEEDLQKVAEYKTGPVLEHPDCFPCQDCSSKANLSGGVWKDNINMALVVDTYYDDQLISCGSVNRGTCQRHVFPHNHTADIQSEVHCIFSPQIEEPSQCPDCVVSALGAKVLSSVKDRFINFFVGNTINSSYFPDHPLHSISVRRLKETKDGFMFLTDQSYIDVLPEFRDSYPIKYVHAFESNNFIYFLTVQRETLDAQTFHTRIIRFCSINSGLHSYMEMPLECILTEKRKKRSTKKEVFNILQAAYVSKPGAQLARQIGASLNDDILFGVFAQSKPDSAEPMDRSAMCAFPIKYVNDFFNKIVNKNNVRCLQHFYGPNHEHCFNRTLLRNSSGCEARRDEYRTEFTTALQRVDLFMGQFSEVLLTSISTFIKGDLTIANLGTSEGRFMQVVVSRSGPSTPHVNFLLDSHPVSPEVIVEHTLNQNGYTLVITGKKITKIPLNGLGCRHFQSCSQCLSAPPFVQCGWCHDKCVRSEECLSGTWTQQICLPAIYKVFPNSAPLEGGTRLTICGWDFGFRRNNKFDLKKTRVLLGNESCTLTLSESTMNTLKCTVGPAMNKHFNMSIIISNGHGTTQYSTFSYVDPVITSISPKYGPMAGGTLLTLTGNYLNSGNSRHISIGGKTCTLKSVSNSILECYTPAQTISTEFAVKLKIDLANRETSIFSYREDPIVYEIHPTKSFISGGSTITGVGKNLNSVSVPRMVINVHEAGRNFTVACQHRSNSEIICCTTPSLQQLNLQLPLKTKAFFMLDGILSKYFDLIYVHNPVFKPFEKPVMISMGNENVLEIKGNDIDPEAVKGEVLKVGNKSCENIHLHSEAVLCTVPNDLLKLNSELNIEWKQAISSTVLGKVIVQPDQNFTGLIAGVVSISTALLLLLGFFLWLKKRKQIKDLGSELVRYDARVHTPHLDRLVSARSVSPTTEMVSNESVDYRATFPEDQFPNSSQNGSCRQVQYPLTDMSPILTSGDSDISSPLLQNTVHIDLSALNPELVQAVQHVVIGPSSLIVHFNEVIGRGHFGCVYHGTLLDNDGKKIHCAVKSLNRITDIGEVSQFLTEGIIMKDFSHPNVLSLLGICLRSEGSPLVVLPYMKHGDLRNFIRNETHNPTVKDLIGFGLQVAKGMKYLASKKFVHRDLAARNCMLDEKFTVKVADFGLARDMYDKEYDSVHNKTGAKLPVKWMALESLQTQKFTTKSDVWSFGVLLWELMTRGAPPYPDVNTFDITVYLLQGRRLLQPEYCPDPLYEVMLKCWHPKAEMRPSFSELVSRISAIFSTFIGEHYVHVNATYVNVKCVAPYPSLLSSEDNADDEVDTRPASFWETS

KIT wt [6] = target: T12, KIT wt (Homo sapiens, UniProt P10721); assay: ADP-Glo biochemical assay; set-up: wt KIT residues 544-935 with a His tag; His tag; made in house; host or cells: SF9 insect cells (baculovirus); details: purified kinase protein, 100 μM ATP
Target sequence in this assay (P10721 544-935): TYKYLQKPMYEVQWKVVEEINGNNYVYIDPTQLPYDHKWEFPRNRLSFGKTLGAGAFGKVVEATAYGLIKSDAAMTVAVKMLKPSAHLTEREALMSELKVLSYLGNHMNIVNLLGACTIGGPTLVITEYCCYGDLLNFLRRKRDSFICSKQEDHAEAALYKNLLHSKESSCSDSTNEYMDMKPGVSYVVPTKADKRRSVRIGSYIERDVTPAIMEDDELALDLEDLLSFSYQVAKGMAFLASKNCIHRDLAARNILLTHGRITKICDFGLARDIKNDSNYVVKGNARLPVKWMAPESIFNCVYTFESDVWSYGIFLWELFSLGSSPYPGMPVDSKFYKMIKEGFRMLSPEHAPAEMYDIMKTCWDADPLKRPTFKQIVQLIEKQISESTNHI

FLT3(ITD) = assay: KINOMEScan; assay type: binding; set-up: dose or concentration left out as unconfirmed
EGFR(L861Q) = target: T13, EGFR(L861Q) (Homo sapiens, UniProt P00533, L861Q); assay: KINOMEScan; assay type: binding; set-up: dose or concentration left out as unconfirmed
T13 construct: purchased DiscoverX KINOMEscan

SNARK = target: T14, SNARK (Homo sapiens, UniProt Q9H093); assay: KINOMEScan; assay type: binding; set-up: dose or concentration left out as unconfirmed
T14 construct: purchased DiscoverX KINOMEscan

EPHB2 = target: T15, EPHB2 (Homo sapiens, UniProt P29323); assay: KINOMEScan; assay type: binding; set-up: dose or concentration left out as unconfirmed
T15 construct: purchased DiscoverX KINOMEscan
T15 sequence (P29323 19-1055): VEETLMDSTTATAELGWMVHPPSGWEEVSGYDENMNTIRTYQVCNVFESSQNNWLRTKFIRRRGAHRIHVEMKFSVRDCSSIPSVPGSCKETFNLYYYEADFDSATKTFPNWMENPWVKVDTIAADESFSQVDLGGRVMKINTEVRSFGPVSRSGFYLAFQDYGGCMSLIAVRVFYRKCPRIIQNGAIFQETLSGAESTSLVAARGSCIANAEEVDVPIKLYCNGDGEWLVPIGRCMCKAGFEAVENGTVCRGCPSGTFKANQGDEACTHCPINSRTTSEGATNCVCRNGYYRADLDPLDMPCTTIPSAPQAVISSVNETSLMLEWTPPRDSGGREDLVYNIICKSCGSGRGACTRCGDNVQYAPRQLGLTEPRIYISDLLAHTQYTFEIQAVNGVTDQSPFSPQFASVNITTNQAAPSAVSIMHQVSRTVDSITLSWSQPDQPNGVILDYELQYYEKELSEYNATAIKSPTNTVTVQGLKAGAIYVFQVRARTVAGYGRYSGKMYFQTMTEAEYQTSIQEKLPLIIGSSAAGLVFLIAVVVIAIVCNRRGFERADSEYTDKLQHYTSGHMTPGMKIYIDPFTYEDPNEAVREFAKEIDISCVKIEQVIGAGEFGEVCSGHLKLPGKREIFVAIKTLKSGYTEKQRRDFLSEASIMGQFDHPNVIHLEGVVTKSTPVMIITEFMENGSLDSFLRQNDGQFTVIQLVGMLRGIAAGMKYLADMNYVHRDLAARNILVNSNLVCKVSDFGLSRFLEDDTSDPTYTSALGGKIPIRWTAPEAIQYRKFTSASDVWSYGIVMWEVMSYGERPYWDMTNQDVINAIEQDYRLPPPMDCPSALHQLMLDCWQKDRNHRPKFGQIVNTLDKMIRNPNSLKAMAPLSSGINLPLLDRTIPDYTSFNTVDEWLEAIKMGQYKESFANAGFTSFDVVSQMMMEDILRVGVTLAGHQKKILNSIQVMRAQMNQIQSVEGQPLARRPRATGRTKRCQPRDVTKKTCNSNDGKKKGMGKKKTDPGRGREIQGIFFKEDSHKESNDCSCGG

WNK1 = target: T16, WNK1 (Homo sapiens, UniProt Q9H4A3); assay: KINOMEScan; assay type: binding; set-up: dose or concentration left out as unconfirmed
T16 construct: purchased DiscoverX KINOMEscan

BaF3 = assay: Anti-proliferation assay, parental BaF3 cells; assay type: cell-based; details: Mus musculus, 72 hours, CellTiter-Glo
Description: The KIT mutant isogenic BaF3 cells lines and Colo320DM cells were cultured in RPMI 1640 media (Corning, USA) with 10% fetal bovine serum (FBS) and supplemented with 2% L-glutamine 1% penicillin/streptomycin, the BaF3 cell line was cultured in RPMI 1640 media (Corning, USA) with 1% IL-3, 10% fetal bovine serum (FBS) and supplemented with 2% L-glutamine 1% penicillin/streptomycin. All cell lines were maintained in culture media at 37°C with 5% CO2.
Cells were grown in 96-well culture plates (2500/well). The compounds of various concentrations were added into the plates. Cell proliferation was determined after treatment with compounds for 72 hours. Cell viability was measured using the CellTiter–Glo assay (Promega, USA), according to the manufacturer’s instructions, and luminescence was measured in a multi-label reader (Envision, PerkinElmer, USA). Data were normalized to control groups (DMSO) and represented by the mean of three independent measurements with standard error <20%. GI50 values were calculated using Prism 5.0 (GraphPad Software, San Diego, CA).

[7] = tested on: BaF3-TEL-KIT-V559D tumors; assay: BaF3-TEL-KIT-V559D allograft model
KIT wt [8] = target: T12, KIT wt; assay: KIT auto-phosphorylation in parental Colo320DM cells; assay type: cell-based; set-up: Colo320DM cells which express wt KIT kinase; endogenous in cells; host or cells: Colo320DM, SCF-stimulated
Excerpt: as §1
Target sequence in this assay (P10721 26-976): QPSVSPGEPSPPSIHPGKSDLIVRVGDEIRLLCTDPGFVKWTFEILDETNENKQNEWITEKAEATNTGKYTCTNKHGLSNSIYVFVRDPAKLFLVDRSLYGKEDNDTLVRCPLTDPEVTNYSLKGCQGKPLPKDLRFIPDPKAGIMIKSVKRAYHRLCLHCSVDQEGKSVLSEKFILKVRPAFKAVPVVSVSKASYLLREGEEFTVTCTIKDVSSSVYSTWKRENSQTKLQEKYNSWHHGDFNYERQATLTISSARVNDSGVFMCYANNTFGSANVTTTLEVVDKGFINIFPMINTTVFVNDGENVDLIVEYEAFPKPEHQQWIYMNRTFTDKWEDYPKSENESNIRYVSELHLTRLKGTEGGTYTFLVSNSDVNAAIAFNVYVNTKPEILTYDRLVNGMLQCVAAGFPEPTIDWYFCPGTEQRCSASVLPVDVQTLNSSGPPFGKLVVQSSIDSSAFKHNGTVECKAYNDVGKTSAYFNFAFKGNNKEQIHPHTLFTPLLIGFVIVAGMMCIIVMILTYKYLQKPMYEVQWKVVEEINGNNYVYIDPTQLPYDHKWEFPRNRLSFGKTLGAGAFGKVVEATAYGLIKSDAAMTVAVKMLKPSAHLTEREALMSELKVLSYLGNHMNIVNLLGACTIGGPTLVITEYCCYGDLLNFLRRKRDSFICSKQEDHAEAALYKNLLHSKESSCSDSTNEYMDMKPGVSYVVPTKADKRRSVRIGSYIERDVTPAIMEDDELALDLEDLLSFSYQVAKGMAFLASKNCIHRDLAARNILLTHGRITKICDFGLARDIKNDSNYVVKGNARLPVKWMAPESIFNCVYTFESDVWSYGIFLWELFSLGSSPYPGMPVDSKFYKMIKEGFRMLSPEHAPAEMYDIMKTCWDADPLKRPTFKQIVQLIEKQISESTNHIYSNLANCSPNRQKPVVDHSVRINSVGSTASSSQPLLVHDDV

KIT T670I/V559D, sequence (P10721 26-976 V559D/T670I): as the sequence (P10721 26-976) above, with V534D, T645I counted along it
KIT A829P, sequence (P10721 26-976 A829P): as the sequence (P10721 26-976) above, with A804P counted along it

Q: Which EC50 (KIT T670I/V559D) does the source give for `COc1cc(C(=O)NCC(=O)Nc2ccc3c(/C=C/c4ccccn4)n[nH]c3c2)cc(OC)c1OC` [CHMFL-KIT-031] here?
A: > 10000 nM

Q: And the EC50 (KIT T670I/V559D; read-out: EC50 pY719 auto-phosphorylation, KIT T670I/V559D transformed BaF3 cells, 2h)?
A: > 10000 nM

Q: What about the EC50 (KIT T670I/V559D; read-out: EC50 pY823 auto-phosphorylation, KIT T670I/V559D transformed BaF3 cells, 2h) of the same compound?
A: > 10000 nM

Q: What about the EC50 (KIT A829P) of the same compound?
A: > 10000 nM

Q: What about the EC50 (KIT A829P; read-out: EC50 pY719 auto-phosphorylation, KIT A829P transformed BaF3 cells, 2h) of the same compound?
A: > 10000 nM

Q: What about the EC50 (KIT A829P; read-out: EC50 pY823 auto-phosphorylation, KIT A829P transformed BaF3 cells, 2h) of the same compound?
A: > 10000 nM

Q: What about the EC50 (KIT V559D [1]; EC50 pY703 auto-phosphorylation) of the same compound?
A: 151 nM

Q: What about the EC50 (KIT V559D [1]; EC50 pY719 auto-phosphorylation) of the same compound?
A: 137 nM

Q: And the EC50 (KIT V559D [1]; EC50 pY823 auto-phosphorylation)?
A: 118 nM

Q: And the KINOMEScan profiling value (CDK2)?
A: 100

Q: What about the KINOMEScan profiling value [2] of the same compound?
A: 100

Q: What about the KINOMEScan profiling value (SIK) of the same compound?
A: 100

Q: And the KINOMEScan profiling value (BMPR2)?
A: 100

Q: And the KINOMEScan profiling value [3]?
A: 85

Q: What about the KINOMEScan profiling value [4] of the same compound?
A: 100

Q: And the KINOMEScan profiling value (CDC2L5)?
A: 97

Q: And the KINOMEScan profiling value (SYK)?
A: 100

Q: And the KINOMEScan profiling value (FLT3(ITD,D835V))?
A: 73

Q: What about the EC50 (KIT V559D [5]; COLO 320DM-KIT-V559D, read-out: EC50 P-CKIT Y719) of the same compound?
A: 239 nM

Q: What about the EC50 (KIT V559D [5]; COLO 320DM-KIT-V559D, read-out: EC50 P-CKIT Y823) of the same compound?
A: 147 nM

Q: And the EC50 (KIT V559D [5]; Colo320DM cells overexpressing KIT V559D, range over the sites, read-out: EC50 phosphorylation of KIT V559D mutant (Y703, 719 and Y823 sites))?
A: 176 to 339 nM

Q: What about the “selectivity compared to KIT wt at the corresponding phosphorylation sites” value (KIT V559D [5]; Colo320DM cells, EC50) of the same compound?
A: over 10 fold

Q: And the EC50 (KIT V559D [5]; in cell, KIT V559D, read-out: EC50 pY703)?
A: 176 nM

Q: What about the KINOMEScan profiling value (MARK4) of the same compound?
A: 96

Q: And the KINOMEScan profiling value (MET(Y1235D))?
A: 100

Q: What about the IC50 (KIT wt [6]) of the same compound?
A: 168 nM

Q: What about the KINOMEScan profiling value (FLT3(ITD)) of the same compound?
A: 44

Q: And the KINOMEScan profiling value (EGFR(L861Q))?
A: 100

Q: And the KINOMEScan profiling value (SNARK)?
A: 100

Q: And the KINOMEScan profiling value (EPHB2)?
A: 87

Q: And the KINOMEScan profiling value (WNK1)?
A: 19

Q: And the GI50 (BaF3)?
A: > 10000 nM

Q: And the TGI ([7]; 100mg/kg/d IP, 10 days)?
A: 68.5%

Q: What about the “KIT, AKT, S6 and STAT3 phosphorylation in tumor tissue” value ([7]; starting from 50 mg/kg, Western blot after 10-day treatment) of the same compound?
A: significantly affect

Q: What about the EC50 (KIT wt [8]; COLO 320DM (KIT wt), SCF stimulation, read-out: EC50 P-CKIT Y719) of the same compound?
A: 5620 nM

Q: What about the EC50 (KIT wt [8]; COLO 320DM (KIT wt), SCF stimulation, read-out: EC50 P-CKIT Y823) of the same compound?
A: 9700 nM

Q: And the EC50 (KIT wt [8]; in cell, KIT wt, read-out: EC50 pY703)?
A: 2000 nM
